Assay results from US11400063B2, “Early administration of low-dose colchicine after myocardial infarction” (INSTITUT DE CARDIOLOGIE DE MONTREAL, priority 2019, dated 2022).
Several values for one entry are separate records, joined by “and”; a condition that tells them apart may be missing. Identical values can stand only once.

Tested on: patients recruited within 30 days after a myocardial infarction
Assay: COLCOT randomized double-blind trial, efficacy end points, colchicine 0.5 mg once daily vs placebo
Type: in vivo, human
Details: for Total primary endpoint events, Rate Ratio (95% CI): Negative binomial model, marginal rate ratio; for Rate of primary endpoint events per 100 patient-months: first and recurrent events
Experimental: We performed a randomized, double-blind trial involving patients recruited within 30 days after a myocardial infarction. The patients were randomly assigned to receive either low-dose colchicine (0.5 mg once daily) or placebo. A total of 4745 patients were enrolled; 2386 patients were assigned to the colchicine group, and 2379 to the placebo group. Patients were followed for a median of 22.6 months.
The primary efficacy end point was a composite of death from cardiovascular causes, resuscitated cardiac arrest, myocardial infarction (e.g., acute myocardial infraction or type II myocardial infarction), stroke, or urgent hospitalization for angina leading to coronary revascularization. The components of the primary end point and safety were also assessed.
COLCOT was an international multicenter, randomized, double-blinded trial that randomly assigned patients to receive either low-dose colchicine (0.5 mg once daily) or placebo. The study protocol and main results have been published (see, Tardif et al., N Engl J Med 2019). […] Main exclusion criteria were severe heart failure, reduced left ventricular ejection fraction (<35%), recent stroke (<3 months), type 2 MI, recent (<3 years) or planned coronary artery bypass graft (CABG), history of cancer (<3 years), and inflammatory bowel disease or chronic diarrhea. All patients enrolled in the trial benefited from percutaneous coronary intervention whenever indicated and guidelines-directed management of CV disease prior to randomization (see. Tardif et al., N Engl J Med 2019).
Clinical follow-up consisted of evaluations at 1 and 3 months after randomization and every 3 months thereafter. An independent clinical endpoint committee, blinded to trial-group assignment, adjudicated clinical endpoints. The trial was locally approved by the various institutional review boards, and all patients signed a written informed consent before enrollment.
The primary efficacy endpoint was a composite of CV death, resuscitated cardiac arrest, MI, stroke, or urgent hospitalization for angina requiring coronary revascularization. The secondary endpoints consisted of the components of the primary efficacy endpoint, all-cause death, and a composite of CV death, resuscitated cardiac arrest, MI, or stroke. Exploratory endpoints included all coronary revascularizations, including both elective and urgent coronary revascularizations.
The primary efficacy endpoint was a composite of cardiovascular death, MI, ischemic stroke, and urgent coronary revascularization. Secondary efficacy endpoints consisted of the components of the primary endpoint, composite of cardiovascular death, MI, and ischemic stroke, as well as deep vein thrombosis or pulmonary embolus, and atrial fibrillation (AF). To maximize consistency in pooling efficacy endpoints among trials, the primary and secondary composite efficacy and stroke endpoints in COLCOT were modified to meet the definition of primary and stroke endpoints of the LoDoCo2 trial. Therefore, adjudicated events of resuscitated cardiac arrest and non-ischemic stroke in COLCOT were excluded from the pooled primary endpoint. The component endpoint of stroke was also restricted to include only ischemic strokes. Incidence rates and hazards ratios (HRs) were calculated for the new primary composite endpoint and ischemic stroke endpoint using individual patient data from COLCOT.
The COLCOT trial was performed as follows. A randomized, double-blind trial involving patients recruited within 30 days after a myocardial infarction was performed. The patients were randomly assigned to receive either low-dose colchicine (0.5 mg once daily) or placebo. A total of 4745 patients were enrolled; 2386 patients were assigned to the colchicine group, and 2379 to the placebo group. […]

[1] = COLCOT endpoint modified to LoDoCo2 definition
[2] = intention-to-treat population, listed as colchicine
[3] = intention-to-treat, colchicine vs placebo
[4] = intention-to-treat, colchicine vs placebo, listed as colchicine
[5] = per-protocol population, colchicine vs placebo
[6] = subgroup History of diabetes: No
[7] = subgroup History of diabetes: Yes
[8] = subgroup History of hypertension: No
[9] = subgroup History of hypertension: Yes
[10] = subgroup Prior PCI or CABG: Yes
[11] = subgroup Prior stroke or TIA: No
[12] = subgroup Prior stroke or TIA: Yes
[13] = subgroup Smoking: Active smoker
[14] = subgroup Smoking: Previous smoker
[15] = subgroup White blood cell count: Above median
[16] = subgroup White blood cell count: Below median

## COc1cc2c(c(OC)c1OC)-c1ccc(OC)c(=O)cc1[C@@H](NC(C)=O)CC2 [Colchicine, colchicine]
52949 patient-months of follow-up
  Total number of primary endpoint events (first and recurrent): 154
All patients
  Primary efficacy composite endpoint, no. of patients with event/total no. of patients: 131/2366
Andersen-Gill model
  Total primary endpoint events, Hazard Ratio (95% CI): 0.69 (0.54; 0.88)
[1]
  Primary composite outcome (cardiovascular mortality, myocardial infarction, ischemic stroke, urgent revascularization), Events %: (5.5%)
  Primary composite outcome (cardiovascular mortality, myocardial infarction, ischemic stroke, urgent revascularization), HR (95% CI): 0.77 (0.61-0.97)
COLCOT endpoint modified to LoDoCo2 definition, N = 2366
  Primary composite outcome (cardiovascular mortality, myocardial infarction, ischemic stroke, urgent revascularization), Events N: 130 N
COLCOT, only ischemic strokes
  Ischemic stroke, Events %: 0.2%
  Ischemic stroke, Events N: 4 N
  Ischemic stroke, HR (95% CI): 0.25 (0.08-0.75)
COLCOT, only ischemic strokes, listed as colchicine
  Ischemic stroke, HR (95% CI): 0.25
N = 2366
  Number of patients with 0 primary endpoint events per patient: 2235
  Number of patients with 1 primary endpoint event per patient: 111
  Number of patients with 2 primary endpoint events per patient: 18
  Number of patients with 3 primary endpoint events per patient: 1
  Number of patients with 4 primary endpoint events per patient: 1
  Total primary endpoint events, Rate Ratio (95% CI): 0.66 (0.51; 0.86)
  Rate of primary endpoint events per 100 patient-months: 0.29 per 100 patient-months
Listed as colchicine
  Total primary endpoint events, Rate Ratio (95% CI): 0.66
  Rate of primary endpoint events per 100 patient-months: 029 per 100 patient-months
WLW model, 1st Event
  Total primary endpoint events, Hazard Ratio (95% CI): 0.77 (0.61; 0.96)
WLW model, 2nd Event
  Total primary endpoint events, Hazard Ratio (95% CI): 0.73 (0.48; 1.11)
WLW model, 3rd Event
  Total primary endpoint events, Hazard Ratio (95% CI): 0.64 (0.37; 1.10)
WLW model, Average
  Total primary endpoint events, Hazard Ratio (95% CI): 0.77 (0.61; 0.96)
intention-to-treat population
  Atrial fibrillation, number of patients: 36 number
  Atrial fibrillation, percent of patients: (1.5) percent
  Death from cardiovascular causes, number of patients: 20 number
  Death, number of patients: 43 number
  Death, percent of patients: (1.8) percent
  Deep venous thrombosis or pulmonary embolus, number of patients: 10 number
  Deep venous thrombosis or pulmonary embolus, percent of patients: (0.4) percent
  Myocardial infarction, number of patients: 89 number
  Resuscitated cardiac arrest, number of patients: 5 number
  Resuscitated cardiac arrest, percent of patients: (0.2) percent
  Secondary composite end point, percent of patients: (4.7) percent
  Stroke, number of patients: 5 number
  Stroke, percent of patients: (0.2) percent
  Urgent hospitalization for angina leading to revascularization, number of patients: 25 number
intention-to-treat population, N = 2366, median follow-up 22.6 months
  Primary composite end point, number of patients: 131 number
[2]
  Primary composite end point, percent of patients: 5.5%
  Secondary composite end point, percent of patients: 4.7%
[3]
  Atrial fibrillation, Hazard Ratio (95% CI): 0.93 (0.59-1.46)
  Death from cardiovascular causes, Hazard Ratio (95% CI): 0.84 (0.46-1.52)
  Death, Hazard Ratio (95% CI): 0.98 (0.64-1.49)
  Deep venous thrombosis or pulmonary embolus, Hazard Ratio (95% CI): 1.43 (0.54-3.75)
  Myocardial infarction, Hazard Ratio (95% CI): 0.91 (0.68-1.21)
  Primary composite end point, Hazard Ratio (95% CI): 0.77 (0.61-0.96)
  Resuscitated cardiac arrest, Hazard Ratio (95% CI): 0.83 (0.25-2.73)
  Secondary composite end point, Hazard Ratio (95% CI): 0.85 (0.66-1.10)
  Stroke, Hazard Ratio (95% CI): 0.26 (0.10-0.70)
  Urgent hospitalization for angina leading to revascularization, Hazard Ratio (95% CI): 0.50 (0.31-0.81) and 0.50 (0.31.-0.81)
[4]
  Death from cardiovascular causes, Hazard Ratio (95% CI): 0.84
  Myocardial infarction, Hazard Ratio (95% CI): 0.91
  Primary composite end point, Hazard Ratio (95% CI): 0.77
  Resuscitated cardiac arrest, Hazard Ratio (95% CI): 0.83
  Secondary composite end point, Hazard Ratio (95% CI): 0.85
  Stroke, Hazard Ratio (95% CI): 0.26
  Urgent hospitalization for angina leading to revascularization, Hazard Ratio (95% CI): 0.50
intention-to-treat, death from cardiovascular causes, resuscitated cardiac arrest, myocardial infarction, and stroke
  Secondary composite end point, number of patients: 111 number
Main COLCOT results, post-MI setting
  reduction of the risk of ischemic CV events: 23%
Multivariable Cox regression model, colchicine vs. placebo, 4745 observations
  Time to first primary endpoint, Adjusted Hazard Ratio (95% CI): 0.78 (0.62-0.98)
per-protocol population
  MI, % of patients: (3.4%)
  MI, no. of patients: 77 no.
  Primary endpoint, % of patients: (5.1%)
  Resuscitated cardiac arrest, % of patients: (0.2%)
  Resuscitated cardiac arrest, no. of patients: 5 no.
  Stroke, % of patients: (0.2%)
  Stroke, no. of patients: 5 no.
  Urgent hospitalization for angina requiring revascularization, % of patients: (1.0%)
  Urgent hospitalization for angina requiring revascularization, no. of patients: 22 no.
per-protocol population, N = 2260
  Primary endpoint, no. of patients: 115 no.
[5]
  MI, Hazard Ratio (95% CI): 0.84 (0.62-1.14)
  Primary endpoint, Hazard Ratio (95% CI): 0.71 (0.56-0.90)
  Resuscitated cardiac arrest, Hazard Ratio (95% CI): 1.00 (0.29-3.46)
  Stroke, Hazard Ratio (95% CI): 0.26 (0.10-0.71)
  Urgent hospitalization for angina requiring revascularization, Hazard Ratio (95% CI): 0.47 (0.28-0.78)
[6]
  Primary efficacy composite endpoint, % of patients: (4.8%)
  Primary efficacy composite endpoint, Hazard ratio (95% CI): 0.85 (0.64; 1.13)
  Primary efficacy composite endpoint, no. of patients with event/total no. of patients: 91/1904
[7]
  Primary efficacy composite endpoint, % of patients: (8.7%)
  Primary efficacy composite endpoint, Hazard ratio (95% CI): 0.65 (0.44; 0.96)
  Primary efficacy composite endpoint, no. of patients with event/total no. of patients: 40/462
[8]
  Primary efficacy composite endpoint, % of patients: (4.1%)
  Primary efficacy composite endpoint, Hazard ratio (95% CI): 0.80 (0.54; 1.17)
  Primary efficacy composite endpoint, no. of patients with event/total no. of patients: 48/1181
[9]
  Primary efficacy composite endpoint, % of patients: (7.0%)
  Primary efficacy composite endpoint, Hazard ratio (95% CI): 0.76 (0.57; 1.01)
  Primary efficacy composite endpoint, no. of patients with event/total no. of patients: 83/1185
Subgroup Prior MI: No
  Primary efficacy composite endpoint, % of patients: (4.3%)
  Primary efficacy composite endpoint, Hazard ratio (95% CI): 0.68 (0.51; 0.89)
  Primary efficacy composite endpoint, no. of patients with event/total no. of patients: 85/1996
Subgroup Prior MI: Yes
  Primary efficacy composite endpoint, % of patients: (12.4%)
  Primary efficacy composite endpoint, Hazard ratio (95% CI): 1.05 (0.70; 1.58)
  Primary efficacy composite endpoint, no. of patients with event/total no. of patients: 46/370
Subgroup Prior PCI or CABG: No
  Primary efficacy composite endpoint, % of patients: (4.3%)
  Primary efficacy composite endpoint, Hazard ratio (95% CI): 0.72 (0.54; 0.95)
  Primary efficacy composite endpoint, no. of patients with event/total no. of patients: 83/1947
[10]
  Primary efficacy composite endpoint, % of patients: (11.5%)
  Primary efficacy composite endpoint, Hazard ratio (95% CI): 0.91 (0.62; 1.34)
  Primary efficacy composite endpoint, no. of patients with event/total no. of patients: 48/419
[11]
  Primary efficacy composite endpoint, % of patients: (5.3%)
  Primary efficacy composite endpoint, Hazard ratio (95% CI): 0.76 (0.60; 0.96)
  Primary efficacy composite endpoint, no. of patients with event/total no. of patients: 123/2311
[12]
  Primary efficacy composite endpoint, % of patients: (14.5%)
  Primary efficacy composite endpoint, Hazard ratio (95% CI): 1.09 (0.42; 2.82)
  Primary efficacy composite endpoint, no. of patients with event/total no. of patients: 8/55
Subgroup Sex: Female
  Primary efficacy composite endpoint, % of patients: (7.8%)
  Primary efficacy composite endpoint, Hazard ratio (95% CI): 0.99 (0.63; 1.58)
  Primary efficacy composite endpoint, no. of patients with event/total no. of patients: 37/472
Subgroup Sex: Male
  Primary efficacy composite endpoint, % of patients: (5.0%)
  Primary efficacy composite endpoint, Hazard ratio (95% CI): 0.70 (0.54; 0.91)
  Primary efficacy composite endpoint, no. of patients with event/total no. of patients: 94/1894
[13]
  Primary efficacy composite endpoint, % of patients: (5.4%)
  Primary efficacy composite endpoint, Hazard ratio (95% CI): 0.93 (0.60; 1.44)
  Primary efficacy composite endpoint, no. of patients with event/total no. of patients: 38/708
Subgroup Smoking: Non-smoker
  Primary efficacy composite endpoint, % of patients: (6.0%)
  Primary efficacy composite endpoint, Hazard ratio (95% CI): 0.90 (0.61; 1.34)
  Primary efficacy composite endpoint, no. of patients with event/total no. of patients: 47/787
[14]
  Primary efficacy composite endpoint, % of patients: (5.3%)
  Primary efficacy composite endpoint, Hazard ratio (95% CI): 0.59 (0.41; 0.85)
  Primary efficacy composite endpoint, no. of patients with event/total no. of patients: 46/871
[15]
  Primary efficacy composite endpoint, % of patients: (5.3%)
  Primary efficacy composite endpoint, Hazard ratio (95% CI): 0.80 (0.51; 1.25)
Subgroup White blood cell count: Above median (8.64 × 10^3/μL)
  Primary efficacy composite endpoint, no. of patients with event/total no. of patients: 34/637
[16]
  Primary efficacy composite endpoint, % of patients: (6.2%)
  Primary efficacy composite endpoint, Hazard ratio (95% CI): 0.85 (0.56; 1.29)
Subgroup White blood cell count: Below median (8.64 × 10^3/μL)
  Primary efficacy composite endpoint, no. of patients with event/total no. of patients: 41/660
